Experimental data published in patent US12065430B2, “Indazole compound or salt thereof” (TAIHO PHARMACEUTICAL CO., LTD., priority 2018, dated 2024).

molecular target: G12C K-Ras4B (1-169) (Homo sapiens (Human), UniProt P01116, G12C); assay: Test of compounds on whether to bind to KRASG12C (LC-MS compound binding rate); conditions: final compound concentration of 2 μM, 1 μM protein, 25° C. for 2 hours
Description: Test compounds were prepared in the form of a 10 mM DMSO solution.
K-Ras4B (1-169) and G12C K-Ras4B (1-169) proteins were mixed and diluted with a buffer (1×TBS, 0.1 mM TCEP) to prepare individual 1 μM protein solutions. A 10 mM test compound was diluted tenfold with DMSO to make a 1 mM solution, and then diluted fivefold with DMSO to make a 200 μM solution. The 200 μM solution was further diluted fivefold to make a 40 μM solution. When the final compound concentration was 10 μM, 1 μL of a 200 μM test compound was added to 19 μL of a 1 μM protein solution. When the final compound concentration was 2 μM, 1 μL of a 40 μM test compound was added to 19 μL of a 1 μM protein solution. The mixtures were stored in an incubator at 25° C. for 2 hours, and 80 μL of a 1×TBS solution containing 0.2% formic acid was added thereto to end the reaction, followed by LC-MS measurement. LC-MS measurement was performed using Xevo G2-S Q-Tof manufactured by Waters, and reverse-phase chromatography was performed with a desalting column. A mass spectrum of positive ions was obtained by electrospray. For a mass spectrum, a spectrum of a polyvalent ion was collectively converted to a molecular weight by using OpenLynx software by the MaxEnt technique, and a compound binding rate was obtained from the ratio of a signal intensity that corresponds to the molecular weight of a protein to a signal intensity that corresponds to the molecular weight of a compound binding to the protein.
By obtaining the compound binding rate for K-Ras4B (1-169) and the compound binding rate for G12C K-Ras4B (1-169) at the same time, information of the selectivity for G12C K-Ras4B (1-169) was obtained at the same time.
The test compounds were measured at their final compound concentration of 2 μM. […] Almost no compounds of the present invention binded to K-Ras4B (1-169). The “binding rate” (%) for each of K-Ras4B (1-169) and G12C K-Ras4B (1-169) refers to the ratio of the signal intensity of binded forms to the sum of the signal intensity of non-binded forms and the signal intensity of binded forms.

G12C K-Ras4B (1-169), sequence (P01116 other isoform, or with tags, fused parts or gaps G12C): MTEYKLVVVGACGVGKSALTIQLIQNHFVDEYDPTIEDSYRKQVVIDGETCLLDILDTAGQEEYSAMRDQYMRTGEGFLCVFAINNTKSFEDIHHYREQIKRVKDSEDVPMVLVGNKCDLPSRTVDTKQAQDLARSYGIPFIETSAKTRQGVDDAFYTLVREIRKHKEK

SMILES | binding rate for G12C K-Ras4B (1-169)
C=CC(=O)N1CC(NC(=O)c2c(Cl)nc(CNc3n[nH]c4cc(Cl)c(C(C)(C)C)cc34)n2[C@@H]2CCN(C3CC3)C2)C1 [Example 120, (R)—N-(1-acryloylazetidin-3-yl)-2-(((5-(tert-butyl)-6-chloro-1H-indazol-3-yl)amino)methyl)-4-chloro-1-(1-cyclopropylpyrrolidin-3-yl)-1H-imidazole-5-carboxamide] | A (a binding rate of 80% or more is rated “A,”)
C=CC(=O)N1CC(NC(=O)c2c(C)nc(CNc3n[nH]c4cc(Cl)c(C(C)(C)C)cc34)n2CCOC)C1 [Example 14, N-(1-acryloylazetidin-3-yl)-2-(((5-(tert-butyl)-6-chloro-1H-indazol-3-yl)amino)methyl)-1-(2-methoxyethyl)-4-methyl-1H-imidazole-5-carboxamide] | B (a binding rate of 60% or more and less than 80% is rated “B,”)
C=CC(=O)NC1CN(C(=O)c2c(C)nc(CNc3n[nH]c4cc(Cl)c(C(C)(C)C)cc34)n2C)C1 [Example 46, N-(1-(2-(((5-(tert-butyl)-6-chloro-1H-indazol-3-yl)amino)methyl)-1,4-dimethyl-1H-imidazole-5-carbonyl)azetidin-3-yl) acrylamide] | B (a binding rate of 60% or more and less than 80% is rated “B,”)
C=CC(=O)N1CC(NC(=O)c2c(Cl)nc(CNc3n[nH]c4cc(Cl)c(C(C)(C)C)cc34)n2[C@@H]2C[C@@H](O)[C@@H](O)C2)C1 [Example 99] | A (a binding rate of 80% or more is rated “A,”)
C=CC(=O)N1CC(NC(=O)c2cnc(CNc3n[nH]c4cc(Cl)c(C(C)(C)C)cc34)n2C)C1 [Example 1, N-(1-acryloylazetidin-3-yl)-2-(((5-(tert-butyl)-6-chloro-1H-indazol-3-yl)amino)methyl)-1-methyl-1H-imidazole-5-carboxamide] | A (a binding rate of 80% or more is rated “A,”)
C=CC(=O)N1CC(NC(=O)c2sc(CNc3n[nH]c4cc(Cl)c(C(C)(C)C)cc34)nc2C)C1 [Example 2, N-(1-acryloylazetidin-3-yl)-2-(((5-(tert-butyl)-6-chloro-1H-indazol-3-yl)amino)methyl)-4-methylthiazole-5-carboxamide] | B (a binding rate of 60% or more and less than 80% is rated “B,”)
C=CC(=O)N1CC(NC(=O)c2c(C#N)nc(CNc3n[nH]c4cc(Cl)c(C(C)(C)C)cc34)n2C)C1 [Example 28, N-(1-acryloylazetidin-3-yl)-2-(((5-(tert-butyl)-6-chloro-1H-indazol-3-yl)amino)methyl)-4-cyano-1-methyl-1H-imidazole-5-carboxamide] | B (a binding rate of 60% or more and less than 80% is rated “B,”)
C=CC(=O)N1C[C@@H](C)[C@@H](NC(=O)c2c(C(F)F)nc(CNc3n[nH]c4cc(Cl)c(C(C)(C)C)cc34)n2C)C1 [Example 71, N-((3R,4R)-1-acryloyl-4-methylpyrrolidin-3-yl)-2-(((5-(tert-butyl)-6-chloro-1H-indazol-3-yl)amino)methyl)-4-(difluoromethyl)-1-methyl-1H-imidazole-5-carboxamide] | C (a binding rate of 40% or more and less than 60% is rated “C,”)
C=CC(=O)N1CC(NC(=O)c2c(Cl)nc(CNc3n[nH]c4cc(Cl)c(C(C)(C)C)cc34)n2C2CN(C(C)=O)C2)C1 [Example 108, 1-(1-acetylazetidin-3-yl)-N-(1-acryloylazetidin-3-yl)-2-(((5-(tert-butyl)-6-chloro-1H-indazol-3-yl)amino)methyl)-4-chloro-1H-imidazole-5-carboxamide] | A (a binding rate of 80% or more is rated “A,”)
C=CC(=O)N1CC(NC(=O)c2cnc(CNc3n[nH]c4cc(Cl)c(C)cc34)n2C)C1 [Example 37, N-(1-acryloylazetidin-3-yl)-2-(((6-chloro-5-methyl-1H-indazol-3-yl)amino)methyl)-1-methyl-1H-imidazole-5-carboxamide] | C (a binding rate of 40% or more and less than 60% is rated “C,”)
CC#CC(=O)N1CC(NC(=O)c2c(C)nc(CNc3n[nH]c4cc(Cl)c(C(C)(C)C)cc34)n2C(C)C)C1 [Example 82, N-(1-(buty-2-noyl)azetidin-3-yl)-2-(((5-(tert-butyl)-6-chloro-1H-indazol-3-yl)amino)methyl)-1-isopropyl-4-methyl-1H-imidazole-5-carboxamide] | D (a binding rate of 20% or more and less than 40% is rated “D,”)
C=CC(=O)N1CC(NC(=O)c2c(C(F)F)nc(CNc3n[nH]c4cc(Cl)c(C(C)(C)C)cc34)n2C2CCN(C)C2)C1 (centres unmarked) [Example 91, N-(1-acryloylazetidin-3-yl)-2-(((5-(tert-butyl)-6-chloro-1H-indazol-3-yl)amino)methyl)-4-(difluoromethyl)-1-(1-methylpyrrolidin-3-yl)-1H-imidazole-5-carboxamide] | A (a binding rate of 80% or more is rated “A,”)
C=CC(=O)N1CC(NC(=O)c2c(Cl)nc(CNc3n[nH]c4cc(Cl)c(C(C)(C)C)cc34)n2[C@H]2CCN(C(C)C)C2)C1 [Example 116, (S)—N-(1-acryloylazetidin-3-yl)-2-(((5-(tert-butyl)-6-chloro-1H-indazol-3-yl)amino)methyl)-4-chloro-1-(1-isopropylpyrrolidin-3-yl)-1H-imidazole-5-carboxamide] | B (a binding rate of 60% or more and less than 80% is rated “B,”)
C=CC(=O)N1CC(NC(=O)c2c(C)nc(CNc3n[nH]c4cc(Cl)c(C(C)(C)C)cc34)n2CC(F)(F)F)C1 [Example 22, N-(1-acryloylazetidin-3-yl)-2-(((5-(tert-butyl)-6-chloro-1H-indazol-3-yl)amino)methyl)-4-methyl-1-(2,2,2-trifluoroethyl)-1H-imidazole-5-carboxamide] | B (a binding rate of 60% or more and less than 80% is rated “B,”)
C=CC(=O)N1CC(NC(=O)c2c(Cl)nc(CNc3n[nH]c4cc(Cl)c(C(C)(C)C)cc34)n2[C@@H]2CCN(C3COC3)C2)C1 [Example 121, (R)—N-(1-acryloylazetidin-3-yl)-2-(((5-(tert-butyl)-6-chloro-1H-indazol-3-yl)amino)methyl)-4-chloro-1-(1-(oxetan-3-yl)pyrrolidin-3-yl)-1H-imidazole-5-carboxamide] | A (a binding rate of 80% or more is rated “A,”)
C=CC(=O)N(C)C1CN(C(=O)c2c(C)nc(CNc3n[nH]c4cc(Cl)c(C(C)(C)C)cc34)n2C)C1 [Example 51, N-(1-(2-(((5-(tert-butyl)-6-chloro-1H-indazol-3-yl)amino)methyl)-1,4-dimethyl-1H-imidazole-5-carbonyl)azetidin-3-yl)-N-methylacrylamide] | B (a binding rate of 60% or more and less than 80% is rated “B,”)
C=CC(=O)N1C[C@@H](NC(=O)c2c(C)nc(CNc3n[nH]c4cc(Cl)c(C(C)(C)C)cc34)n2C)[C@H]1C (relative stereo) [Example 52, N-((2R*,3R*)-1-acryloyl-2-methylazetidin-3-yl)-2-(((5-(tert-butyl)-6-chloro-1H-indazol-3-yl)amino)methyl)-1,4-dimethyl-1H-imidazole-5-carboxamide] | B (a binding rate of 60% or more and less than 80% is rated “B,”)
C=CC(=O)N1CC(NC(=O)c2c(Cl)nc(CNc3n[nH]c4cc(Cl)c(C(C)(C)C)cc34)n2CC(C)C)C1 [Example 89, N-(1-acryloylazetidin-3-yl)-2-(((5-(tert-butyl)-6-chloro-1H-indazol-3-yl)amino)methyl)-4-chloro-1-isobutyl-1H-imidazole-5-carboxamide] | A (a binding rate of 80% or more is rated “A,”)
C=CC(=O)N1CC(NC(=O)c2c(C(F)(F)F)nc(CNc3n[nH]c4cc(Cl)c(C(C)(C)C)cc34)n2C)C1 [Example 25, N-(1-acryloylazetidin-3-yl)-2-(((5-(tert-butyl)-6-chloro-1H-indazol-3-yl)amino)methyl)-1-methyl-4-(trifluoromethyl)-1H-imidazole-5-carboxamide] | A (a binding rate of 80% or more is rated “A,”)
C=CC(=O)N1CC(NC(=O)c2c(C(F)F)nc(CNc3n[nH]c4cc(Cl)c(C(C)(C)C)cc34)n2CC2CCCN2C(C)C)C1 (centres unmarked) [Example 95, N-(1-acryloylazetidin-3-yl)-2-(((5-(tert-butyl)-6-chloro-1H-indazol-3-yl)amino)methyl)-4-(difluoromethyl)-1-((1-isopropylpyrrolidine-2-yl)methyl)-1H-imidazole-5-carboxamide] | A (a binding rate of 80% or more is rated “A,”)
